Where two headings read alike, the source gives them in different places.
Assays:
[1] = tested on: human airway smooth muscle cells; test: [Ca2+]i increase in cultured primary human airway smooth muscle cells (Fluo-4 AM); type: cell-based; details: for [Ca2+]i response in human ASM cells: 1.0 mM tastant, FIG. 1c; for effect on saccharin-elicited [Ca2+]i increase: absence of extracellular calcium, FIG. 1d
Method: (§1) Dose response curves for [Ca^2+]i and ex vivo tracheal ring studies were analyzed by iterative non-linear (sigmoidal) least squares fitting. Results from all studies were compared using paired or unpaired two-way t-tests (depending on study design), with P<0.05 considered significant. When multiple comparisons were sought, an ANOVA with post-hoc t-tests was utilized with a correction for multiple comparisons. Data are presented as mean±standard error.

ASM cells = test: Membrane potential of ASM cells (membrane potential-sensitive fluorescent dye); type: cell-based, human; details: for change of membrane potential: 60 mM KCl, 1.0 μM histamine, 1 mM saccharin or chloroquine
Method: Primary human ASM cells were obtained from a commercial source (Clonetics) and maintained as described^31, with experiments performed using cells at passages 3-8. […] The effects of bitter tastants on membrane potential of whole ASM cells was measured using a membrane potential-sensitive fluorescent dye (Molecular Devices) as described^19 in a 96 well plate format with 50,000 cells/well. Excitation was at 530 nm and emission acquired at 565 nm. Data were collected in real time for 300 sec and are shown as relative fluorescent units.

BEAS2B cells = test: [Ca2+]i-stimulated dose-response in BEAS2B cells; type: cell-based, human
Method: (§2) In one example, cells are grown in multi-well dishes, loaded with a fluorescence-based calcium indicator dye, and test compounds are added with subsequent monitoring of the change in fluorescence indicative of a change in intracellular calcium [Ca^2+]i release. Test compounds can include, e.g., those with structural similarities to the known bitter taste receptor agonists or antagonists.
(§3) If appropriate, airway cells can also be tested using them within tracheal rings, as described herein and as is well-known in the art.

intact mouse tracheas = test: Ex vivo relaxation of intact mouse tracheal rings (isometric myograph); details: for relaxation of airways contracted by serotonin: 1.0 mM serotonin, FIG. 4b; for EC50: Mus musculus
Method: Briefly, tracheal rings fitted between a fixed wire and a transducer-coupled wire were maintained in Krebs buffer at 37° C. with aeration from 95% O2, 5% CO2.
as §1

H292 cells = test: [Ca2+]i-stimulated dose-response in H292 cells; type: cell-based, human; details: for EC50: Homo sapiens
Method: as §2, §3

isolated human ASM cells = test: Magnetic twisting cytometry, stiffness of isolated human ASM cells; type: cell-based; details: for change in single-cell stiffness from baseline: isolated human ASM cells, FIG. 7a; for effect on saccharin-promoted relaxation of isolated ASM: 1 mM saccharin, U73122 1 μM, H89 100 nM, IbTx and ChTx 100 nM (FIG. 7b)
Method: Dynamic changes in baseline cell stiffness were measured as an indicator of contraction and relaxation of isolated human ASM cells using magnetic twisting cytometry as described in detail previously^15. In brief, Arg-Gly-Asp coated ferromagnetic microbeads bound to adherent human ASM cells were magnetized horizontally and then twisted in a vertically aligned homogenous magnetic field that was varying sinusoidally in time. Sinusoidal twisting magnetic field caused both a rotation and a pivoting displacement of the bead: such forced bead motions are, in turn, impeded by internal stresses developed by the cell. Lateral bead displacements in response to the resulting oscillatory torque were detected with a spatial resolution of ˜5 nm, and the ratio of specific torque to bead displacements was computed and expressed as the cell stiffness in units of Pascal/nm (Pa/nm). For each individual ASM cell, baseline stiffness was measured for the first 60 sec, and after drug addition stiffness was measured continuously for the next 540 sec. […] For each cell, stiffness was normalized to its baseline stiffness prior to the agonist stimulation.

mouse model of asthma = test: Airway resistance in control and ovalbumin-sensitized mice (flexiVent); type: in vivo; details: for decrease in airway resistance: aerosol during methacholine bronchoconstriction, quinine 150 μg, denatonium 200 μg
Method: Sensitization of 6-week old BALB/c mice was carried out by i.p. injections of […] ovalbumin in 200 μl alum, or alum alone (control) on days 0 and 14. Mice were then challenged with 1.0% aerosolized ovalbumin on days 19, 21 and 24. Twenty-four hours after the last challenge, mice were sedated, intubated and the flexiVent system (SCIREQ) was utilized for ventilation and measurement of airway resistance as previously described^40. Ventilation was at 150 breaths/min with a tidal volume of 240 μl and positive end expiratory pressure of 2.5 cm H2O. After stabilization, mice were challenged with doses of aerosolized methacholine (2.0, 4.0, 8.0 and 16 mg/ml in the nebulizer) until the sustained airway resistance became ˜5-fold greater than baseline. Three minutes after the last […] inhalation, the bitter tastants quinine (150 μg) or denatonium (200 μg), or the β-agonist albuterol (3.0 μg) were administered by aerosol over 10 sec. Resistance measurements (Raw, cm H2O/ml/sec) were taken every 30 sec throughout the experiment.

human ASM cells [2] = test: PKA-mediated VASP phosphorylation, Western blot in human ASM cells; type: cell-based; details: 1.0 mM chloroquine or saccharin, 10 μM forskolin
Method: Primary human ASM cells were obtained from a commercial source (Clonetics) and maintained as described^31, with experiments performed using cells at passages 3-8. These cells consisted of >95% airway smooth muscle as previously ascertained^31. For detecting changes in [Ca^2+]i attached cells in 96-well plates (80,000 cells/well) were loaded with Fluo-4 AM (BD Biosciences) with probenecid for one hour at 37° C. Receptor agonists were added at the indicated concentrations at 37° C. by an automated pipetting system in triplicate and the 525 nm signals were generated by excitation at 485 nm using a Flex Station II (Molecular Devices). Data was acquired every 1.5 sec for 60 sec. Unless otherwise stated, studies were performed in media containing 1.5 mM calcium. In some studies, ASM were transfected with T2R10 siRNA (Invitrogen) or a scrambled-sequence siRNA control by electroporation (Nucleofector, Lonza) using 4×10^6 cells and 4 μg of siRNA. Twenty-four hours later cells were transferred to the 96-well plates for the [Ca^2+]i assay. […] Samples were acetylated and cAMP measured by a highly sensitive ^125I-cAMP based radioimmunoassay as previously described^32. […] The effects of bitter tastants on membrane potential of whole ASM cells was measured using a membrane potential-sensitive fluorescent dye (Molecular Devices) as described^19 in a 96 well plate format with 50,000 cells/well. […]

human ASM cells [3] = details: 0.3 mM saccharin, 1.0 μM histamine

Compound: OCc1ccccc1O[C@@H]1O[C@H](CO)[C@@H](O)[C@H](O)[C@H]1O [salicin]
- [Ca2+]i response in human ASM cells [1]: no response

Compound: [Cl-].[K+] [KCl]
- change of membrane potential (ASM cells): membrane depolarization

Compound: NCCOB(c1ccccc1)c1ccccc1 [2APB]
- effect on saccharin-elicited [Ca2+]i increase [1]: partially inhibited

Compound: OC[C@H]1O[C@H](O[C@]2(CCl)O[C@H](CCl)[C@@H](O)[C@@H]2O)[C@H](O)[C@@H](O)[C@H]1Cl [sucralose]
- [Ca2+]i response in human ASM cells [1]: no response

Compound: COC(=O)[C@@H]1[C@H]2C[C@H]3c4[nH]c5ccccc5c4CCN3C[C@@H]2CC[C@@H]1O [yohimbine]
- [Ca2+]i response in human ASM cells [1]: [Ca^2+]i responses

Compound: CCN(CC)CCCC(C)Nc1ccnc2cc(Cl)ccc12 (stereo not drawn) [chloroquine]
- change of membrane potential (ASM cells): membrane hyperpolarization
- efficacy (BEAS2B cells): 13,995 fluorescence units
- EC50 (BEAS2B cells; Homo sapiens, BEAS-2B, read-out: potency, [Ca2+]i-stimulated dose-response curve): 90 µM
- [Ca2+]i response in human ASM cells [1]: evoked increased [Ca^2+]i
- EC50 ([1]; Homo sapiens, cultured ASM cells, FIG. 1a, read-out: EC50 for [Ca2+]i release): 70 ± 10 µM
- efficacy, net change in fluorescence units ([1]; human airway smooth muscle cells, FIG. 14): 84,317 fluorescence units
- EC50 ([1]; human airway smooth muscle cells, FIG. 14, read-out: potency, [Ca2+]i dose-response curve): 70 µM
- relaxation of airways contracted by serotonin (intact mouse tracheas): marked relaxation
- EC50 (intact mouse tracheas; read-out: EC50 for relaxation, contraction stimulated by acetylcholine): 93 ± 4.3 µM
- EC50 (intact mouse tracheas; read-out: EC50 for relaxation, contraction stimulated by serotonin): 110 ± 32 µM
- relaxation of acetylcholine-mediated constriction (intact mouse tracheas; submaximal dose of chloroquine (200 μM), 1.0 mM acetylcholine): ~67%
- efficacy (H292 cells; H292 cells): 37,136 fluorescence units
- EC50 (H292 cells; NCI-H292, read-out: potency, [Ca2+]i-stimulated dose-response curve): 74 µM
- change in single-cell stiffness from baseline (isolated human ASM cells): resulted in ASM relaxation

Compound: iberiotoxin (QFTDVDCSVSKECWSVCKDLFGVDRGKCMGKKCRCYQ; UniProt P24663 1-37, looked up) [specific BKCa channel antagonist]
- effect on bitter tastant-promoted membrane hyperpolarization (ASM cells; 100 nM iberiotoxin preincubation): completely inhibited
- effect on chloroquine-promoted relaxation in the isolated mouse airway (intact mouse tracheas; 1 mM chloroquine, 100 nM iberiotoxin pretreatment): attenuated
- effect on saccharin-promoted relaxation of isolated ASM (isolated human ASM cells): ablated

Compound: CC(C)NCC(O)c1ccc(O)c(O)c1 (stereo not drawn) [isoproterenol]
- relaxation after chloroquine exposure, washout and acetylcholine re-challenge (intact mouse tracheas; maximal concentration of isoproterenol (30 μM)): 29±4.3%
- maximal relaxation response, loss of active contraction / reduction in active tension (intact mouse tracheas; tracheas contracted with 1.0 mM acetylcholine): 30±9.2%
- change in single-cell stiffness from baseline (isolated human ASM cells): relaxation

Compound: COC(=O)[C@@H](N)CCCNC(=N)N[N+](=O)[O-] [L-NAME]
- effect on bitter tastant-mediated airway relaxation (intact mouse tracheas): not altered

Compound: C=C[C@H]1C[N@@]2CC[C@H]1C[C@H]2[C@H](O)c1ccnc2ccc(OC)cc12 [quinine]
- [Ca2+]i response in human ASM cells [1]: [Ca^2+]i responses
- relaxation of airways contracted by serotonin (intact mouse tracheas): marked relaxation
- efficacy (H292 cells; H292 cells): 133,201 fluorescence units
- EC50 (H292 cells; NCI-H292, H292 cells, read-out: potency, [Ca2+]i-stimulated dose-response curve): 703 µM
- decrease in airway resistance (mouse model of asthma; normal mice): 53±2.96%
- decrease in airway resistance (mouse model of asthma; ovalbumin-sensitized mice): 50±8%

Compound: COc1cccc2c1cc([N+](=O)[O-])c1c(C(=O)O)cc3c(c12)OCO3 [aristocholic acid]
- [Ca2+]i response in human ASM cells [1]: [Ca^2+]i responses

Compound: O=C1OC2(c3ccccc31)c1ccc(O)c(O)c1Oc1c2ccc(O)c1O [gallein]
- effect on saccharin-elicited [Ca2+]i increase [1]: ablated

Compound: O=S(=O)(NCCNC/C=C/c1ccc(Br)cc1)c1cccc2cnccc12 [H89]
- effect on saccharin-promoted relaxation of isolated ASM (isolated human ASM cells): not blocked

Compound: charybdotoxin
- effect on saccharin-promoted relaxation of isolated ASM (isolated human ASM cells): ablated

Compound: O=C1NS(=O)(=O)c2ccccc21 [saccharin]
- [Ca2+]i response in human ASM cells [1]: evoked increased [Ca^2+]i
- PKA-mediated VASP phosphorylation (human ASM cells [2]): Neither chloroquine nor saccharin promoted VASP phosphorylation
- change in single-cell stiffness from baseline (isolated human ASM cells): resulted in ASM relaxation

Compound: COc1ccc2c(c1)CC[C@@H]1[C@@H]2CC[C@]2(C)[C@@H](NCCCCCCN3C(=O)C=CC3=O)CC[C@@H]12 [U73122]
- effect on saccharin-elicited [Ca2+]i increase [1]: ablated
- effect on saccharin-promoted relaxation of isolated ASM (isolated human ASM cells): eliminated

Compound: COc1ccc2c(c1)c(CC(=O)O)c(C)n2C(=O)c1ccc(Cl)cc1 [indomethacin]
- effect on bitter tastant-mediated airway relaxation (intact mouse tracheas): not altered

Compound: C/C=C(/C)C(=O)O[C@H]1C(C)=C2[C@H]([C@@H]1OC(=O)CCCCCCC)[C@@](C)(OC(C)=O)C[C@H](OC(=O)CCC)[C@@]1(O)[C@H]2OC(=O)[C@@]1(C)O [Thapsigargin, thapsigargin]
- effect on chloroquine and other bitter tastant-mediated [Ca2+]i stimulation ([1]; 10 μM thapsigargin pre-incubation 30 min): blocked
- effect on chloroquine-mediated relaxation of intact airway rings (intact mouse tracheas; 10 μM thapsigargin pre-incubation, chloroquine 3.0 mM): blocked

Compound: C[C@H](NC(=NCC(=O)O)Nc1ccc(C#N)cc1)c1ccccc1 [SC45647]
- [Ca2+]i response in human ASM cells [1]: no response

Compound: COc1cc2c(c(OC)c1OC)-c1ccc(OC)c(=O)cc1[C@@H](NC(C)=O)CC2 [colchicine]
- [Ca2+]i response in human ASM cells [1]: relatively low response

Compound: NCCc1c[nH]cn1 [histamine]
- change of membrane potential (ASM cells): membrane depolarization
- change in single-cell stiffness from baseline (isolated human ASM cells): contraction
- spatial pattern of [Ca2+]i response (human ASM cells [3]): rapid rise in [Ca^2+]i throughout the cell

Compound: CC(=O)OC(C)C[N+](C)(C)C (stereo not drawn) [methacholine]
- concentration of inhaled methacholine required to increase baseline airway resistance by 5-fold (mouse model of asthma; non-sensitized mice): 16 mg/mL
- concentration of inhaled methacholine required to increase baseline airway resistance by 5-fold (mouse model of asthma; ovalbumin-sensitized mice): 8 mg/mL

Compound: CC[N+](CC)(CC(=O)Nc1c(C)cccc1C)Cc1ccccc1 [denatonium]
- [Ca2+]i response in human ASM cells [1]: evoked increased [Ca^2+]i
- decrease in airway resistance (mouse model of asthma; normal mice): 44±6%
- decrease in airway resistance (mouse model of asthma; ovalbumin-sensitized mice): 57±4%
